Measurements as given in ChEMBL document CHEMBL5137044, “Expansion of the S-CN-DABO scaffold to exploit the impact on inhibitory activities against the non-nucleoside HIV-1 reverse transcriptase” (Eur J Med Chem, 2022).

How the values were obtained:
[1] = system: Human immunodeficiency virus 1; assay: Antiviral activity against drug-resistant HIV-1 L100I mutant infected in human MT4 cells assessed as reduction in virus-induced cytopathic effect incubated for 5 days by MTT assay; assay type: functional, organism-based; settings: Human immunodeficiency virus 1, L100I mutant, MT4, 120 h
[2] = system: Human immunodeficiency virus 1; assay: Antiviral activity against […] HIV-1 infected in human MT4 cells assessed as reduction in virus-induced cytopathic effect incubated for 5 days by MTT assay; assay type: functional, organism-based; settings: Human immunodeficiency virus 1, MT4, 120 h
[3] = Fold resistance, ratio of EC50 for antiviral activity against drug-resistant HIV-1 K103 N mutant infected in human MT4 cells to EC50 for antiviral activity against […] HIV-1 infected in human MT4 cells; assay type: functional
[4] = Fold resistance, ratio of EC50 for antiviral activity against drug-resistant HIV-1 Y181C mutant infected in human MT4 cells to EC50 for antiviral activity against […] HIV-1 infected in human MT4 cells; assay type: functional
[5] = system: Human immunodeficiency virus 1; assay: Antiviral activity against drug-resistant HIV-1 K103 N mutant infected in human MT4 cells assessed as reduction in virus-induced cytopathic effect incubated for 5 days by MTT assay; assay type: functional, organism-based; settings: Human immunodeficiency virus 1, K103 N mutant, MT4, 120 h
[6] = Fold resistance, ratio of EC50 for antiviral activity against drug-resistant HIV-1 L100I mutant infected in human MT4 cells to EC50 for antiviral activity against […] HIV-1 infected in human MT4 cells; assay type: functional
[7] = Selectivity index, ratio of CC50 for human MT4 cells to EC50 for antiviral activity against NNRTI resistant HIV-1 infected in human MT4 cells; assay type: toxicity, cell-based; settings: read-out: Ratio CC50/EC50
[8] = system: Human immunodeficiency virus 1; assay: Antiviral activity against drug-resistant HIV-1 Y181C mutant infected in human MT4 cells assessed as reduction in virus-induced cytopathic effect incubated for 5 days by MTT assay; assay type: functional, organism-based; settings: Human immunodeficiency virus 1, Y181C mutant, MT4, 120 h
[9] = system: Human immunodeficiency virus 1; assay: Antiviral activity against drug-resistant HIV-1 E138K mutant infected in human MT4 cells assessed as reduction in virus-induced cytopathic effect incubated for 5 days by MTT assay; assay type: functional, organism-based; settings: Human immunodeficiency virus 1, E138K mutant, MT4, 120 h
[10] = system: Human immunodeficiency virus 1; assay: Antiviral activity against drug-resistant HIV-1 Y188L mutant infected in human MT4 cells assessed as reduction in virus-induced cytopathic effect incubated for 5 days by MTT assay; assay type: functional, organism-based; settings: Human immunodeficiency virus 1, Y188L mutant, MT4, 120 h
[11] = biological target: Human immunodeficiency virus type 1 reverse transcriptase (Human immunodeficiency virus 1, UniProt Q72547); assay: Inhibition of recombinant wild-type p66/p51 HIV-1 reverse transcriptase incubated for 40 mins by picogreen dye-based spectrofluorometric analysis
[12] = Fold resistance, ratio of EC50 for antiviral activity against drug-resistant HIV-1 Y188L mutant infected in human MT4 cells to EC50 for antiviral activity against […] HIV-1 infected in human MT4 cells; assay type: functional
[13] = Cytotoxicity against human MT4 cells assessed as cell growth inhibition incubated for 5 days by MTT assay; assay type: toxicity, cell-based; settings: time 5 day
[14] = Fold resistance, ratio of EC50 for antiviral activity against drug-resistant HIV-1 E138K mutant infected in human MT4 cells to EC50 for antiviral activity against […] HIV-1 infected in human MT4 cells; assay type: functional

SMILES | EC50 [1] [µM] | EC50 [2] [µM] | Ratio EC50 [3] | Ratio EC50 [4] | EC50 [5] [µM] | Ratio EC50 [6] | selectivity ratio [7] | EC50 [8] [µM] | EC50 [9] [µM] | EC50 [10] [µM] | IC50 [11] [µM] | Ratio EC50 [12] | CC50 at 120 h [13] [µM] | Ratio EC50 [14]
Cc1c(C(C#N)c2cc(F)cc(Cl)c2)nc(SC(C)C)[nH]c1=O (stereo unspecified) | 19.1 | 0.38 | 124 | 33 | 47.2 | 50 | 363 | 12.5 | 1.99 | > 139 | 0.716 | >365 | 139 | 5
Cc1c(C(C#N)c2ccc(F)c(C#N)c2)nc(SC(C)C)[nH]c1=O (stereo unspecified) | 57 | 21.4 | >8 | >8 | > 164 | 3 | 8 | > 164 | 41.9 | > 164 | 83.8 | >8 | 164 | 2
Cc1c(C(C#N)c2ccc(Br)cc2)nc(SC(C)C)[nH]c1=O (stereo unspecified) | > 10.3 | 0.67 | >70 | >70 | > 47.1 | >15 | 71 | > 47.1 | 1.25 | > 47.1 | 1.78 | >70 | 47.1 | >2
Cc1c(C(C#N)c2ccccc2C(F)(F)F)nc(SC(C)C)[nH]c1=O (stereo unspecified) | 5.92 | 2.61 | >26 | 4 | > 67.6 | 2 | 96 | 10.1 | 3.34 | > 251 | 5.99 | >96 | 251 | 1
Cc1c(C(C#N)c2ccc(F)cc2)nc(SC(C)C)[nH]c1=O (stereo unspecified) | 63.5 | 3.98 | >28 | >28 | > 113 | 16 | 28 | > 113 | 12.6 | > 113 | 14.3 | >28 | 113 | 3
Cc1c(C(C#N)c2c(Cl)cccc2Cl)nc(SC(C)C)[nH]c1=O (stereo unspecified) | 3.38 | 0.083 | >74 | 48 | 6.13 | 41 | 749 | 3.99 | 0.22 | > 62.2 | 0.466 | >750 | 62.2 | 3
Cc1c(C(C#N)c2cccc3c2OCO3)nc(SC(C)C)[nH]c1=O (stereo unspecified) | 10 | 0.45 | >214 | 113 | > 96.5 | 22 | 213 | 50.7 | 1.94 | > 96.5 | 1.35 | >214 | 96.5 | 4
Cc1c(C(C#N)c2cccnc2Cl)nc(SC(C)C)[nH]c1=O (stereo unspecified) | 23.8 | 1.14 | 47 | >53 | 53.6 | 21 | 221 | > 60.9 | 1.56 | > 251 | 13.1 | >221 | 251 | 1
Cc1c(C(C#N)c2cccc(Br)c2)nc(SC(C)C)[nH]c1=O (stereo unspecified) | 7.37 | 0.28 | >170 | 23 | 47.6 | 26 | 443 | 6.43 | 0.71 | > 125 | 0.57 | >445 | 125 | 3
